Source: ChEMBL document CHEMBL3045922, “Synthesis of 6-(3-substituted-4H-1,2,4-triazol-4-yl)-2-phenylbenzo[d]oxazoles as potential anticonvulsant agents” (Med Chem Res, 2010)
The source made the active and inactive calls. No cut-off for these calls is given here.

How the values were obtained:
Mus musculus [1] = assay: Neurotoxicity in Mus musculus Kunming (mouse) assessed as minimal motor impairment at 300 mg/kg, ip at 4 hr by rotarod test; type: toxicity, organism-based; design: dose 300 mg/kg, route intraperitoneal; conditions: in vivo
Mus musculus [2] = assay: Anticonvulsant activity in Mus musculus Kunming (mouse) assessed as protection against maximal electroshock-induced seizures at 100 mg/kg, ip at 4 hr; type: functional, organism-based; design: dose 100 mg/kg
Mus musculus [3] = assay: Anticonvulsant activity in Mus musculus Kunming (mouse) assessed as protection against subcutaneous pentylenetetrazole-induced seizures at 100 mg/kg, ip at 4 hr; type: functional, organism-based; design: dose 100 mg/kg
Mus musculus [4] = assay: Neurotoxicity in Mus musculus Kunming (mouse) assessed as minimal motor impairment at 300 mg/kg, ip at 0.5 hr by rotarod test; type: toxicity, organism-based; design: dose 300 mg/kg, route intraperitoneal; conditions: in vivo
Mus musculus [5] = assay: Anticonvulsant activity in Mus musculus Kunming (mouse) assessed as protection against subcutaneous pentylenetetrazole-induced seizures at 100 mg/kg, ip at 0.5 hr; type: functional, organism-based; design: dose 100 mg/kg
Mus musculus [6] = assay: Anticonvulsant activity in Mus musculus Kunming (mouse) assessed as protection against maximal electroshock-induced seizures at 100 mg/kg, ip at 0.5 hr; type: functional, organism-based; design: dose 100 mg/kg
Mus musculus [7] = species on record: Mus musculus; assay: Protective index, ratio of TD50 for Mus musculus Kunming (mouse) to ED50 for inhibition of maximal electroshock-induced seizure in Mus musculus Kunming (mouse); type: functional
Mus musculus [8] = assay: Anticonvulsant activity in ip dosed Mus musculus Kunming (mouse) assessed as protection against subcutaneous pentylenetetrazole-induced seizures at 0.5 hr; type: functional
Mus musculus [9] = assay: Anticonvulsant activity in ip dosed Mus musculus Kunming (mouse) assessed as protection against maximal electroshock-induced seizures at 0.5 hr; type: functional
[10] = Neurotoxicity in ip dosed Mus musculus Kunming (mouse) assessed as minimal motor impairment at 0.5 hr by rotarod test; type: toxicity, organism-based; conditions: in vivo
Mus musculus [11] = assay: Protective index, ratio of TD50 for Mus musculus Kunming (mouse) to ED50 for inhibition of maximal subcutaneous pentylenetetrazole-induced seizure in Mus musculus Kunming (mouse); type: functional

| Structure (SMILES) | Activity (Mus musculus [1]) | Activity (Mus musculus [2]) | Activity (Mus musculus [3]) | Activity (Mus musculus [4]) | Activity (Mus musculus [5]) | Activity (Mus musculus [6]) | Ratio TD50/ED50 (Mus musculus [7]) | ED50 (Mus musculus [8]) [mg/kg] | ED50 (Mus musculus [9]) [mg/kg] | TD50 at 0.5 h [10] [mg/kg] | Ratio TD50/ED50 (Mus musculus [11]) |
| --- | --- | --- | --- | --- | --- | --- | --- | --- | --- | --- | --- |
| CCCCc1nncn1-c1ccc2nc(-c3ccccc3)oc2c1 | Non-toxic | inactive | inactive | Non-toxic |  |  |  |  |  |  |  |
| Clc1ccc(-c2nncn2-c2ccc3nc(-c4ccccc4)oc3c2)cc1 | Non-toxic | inactive | inactive | Non-toxic | inactive |  |  |  |  |  |  |
| O=[N+]([O-])c1ccc(-c2nncn2-c2ccc3nc(-c4ccccc4)oc3c2)cc1 |  | inactive | inactive |  | inactive | inactive |  |  |  |  |  |
| CCCc1nncn1-c1ccc2nc(-c3ccccc3)oc2c1 | Non-toxic | inactive | inactive |  |  |  |  |  |  |  |  |
| COc1ccc(-c2nncn2-c2ccc3nc(-c4ccccc4)oc3c2)cc1 | Non-toxic | inactive | inactive | Non-toxic | inactive |  |  |  |  |  |  |
| Cc1ccc(-c2nncn2-c2ccc3nc(-c4ccccc4)oc3c2)cc1 |  | inactive | inactive | Toxic |  |  |  |  |  |  |  |
| Cc1nncn1-c1ccc2nc(-c3ccccc3)oc2c1 |  | Active | inactive | Toxic |  | Active | 6.3 | 75.6 | 26.5 | 167 | 2.3 |
| c1ccc(-c2nc3ccc(-n4cnnc4-c4ccccc4)cc3o2)cc1 |  |  | inactive |  |  | Active | 4.1 |  | 65.4 | 266 |  |
| NC(=O)N1c2ccccc2C=Cc2ccccc21 [CARBAMAZEPINE] |  |  |  |  |  |  | 6.4 | > 100 |  |  | <1.3 |
| CCCCCc1nncn1-c1ccc2nc(-c3ccccc3)oc2c1 |  | inactive | inactive |  | inactive | inactive |  |  |  |  |  |
| CCc1nncn1-c1ccc2nc(-c3ccccc3)oc2c1 | Non-toxic |  | inactive |  |  |  |  |  |  |  |  |
| CCCCCCCCCc1nncn1-c1ccc2nc(-c3ccccc3)oc2c1 | Toxic | inactive | inactive | Toxic |  | inactive |  |  |  |  |  |
| Clc1ccccc1-c1nncn1-c1ccc2nc(-c3ccccc3)oc2c1 | Non-toxic | inactive | inactive | Non-toxic |  | inactive |  |  |  |  |  |
| Fc1ccc(-c2nncn2-c2ccc3nc(-c4ccccc4)oc3c2)cc1 | Non-toxic | inactive | inactive | Non-toxic | inactive |  |  |  |  |  |  |
| Clc1cccc(-c2nncn2-c2ccc3nc(-c4ccccc4)oc3c2)c1 | Non-toxic | inactive | inactive | Toxic |  |  |  |  |  |  |  |
| Fc1cccc(-c2nncn2-c2ccc3nc(-c4ccccc4)oc3c2)c1 | Non-toxic | inactive | inactive | Non-toxic | inactive |  |  |  |  |  |  |
| COc1cccc(-c2nncn2-c2ccc3nc(-c4ccccc4)oc3c2)c1 | Non-toxic | inactive | inactive |  | inactive | Active | 3.7 |  | 66.5 | 249 |  |
| c1ccc(-c2nc3ccc(-n4cnnc4)cc3o2)cc1 | Non-toxic | Active | inactive |  | inactive | Active | 9.7 | 69.8 | 29.5 | 285 | 4.1 |
